One assay has as its target T1, BSA (Bos taurus, UniProt P02769).
T1 construct: purchased HiMedia (Mumbai, India)
Put plainly: BSA tryptophan fluorescence quenching. The class given is binding, bovine. The conditions noted are these: for Quenching constant kq / Stern–Volmer KSV / number of binding sites n / Binding constant Kbin: BSA; for Binding constant Kbin: Scatchard equation; for quenching of BSA fluorescence intensity at 346 nm: compounds 10–100 μM, BSA 10 μM. The text has this:
(§1) The obtained results confirmed the interaction of the ligands and complexes with serum albumins. The absorption spectra of the serum albumins in the absence and presence of ligands H2L^1–4 and the complexes 1–4 are given in Fig. S29 in the ESI. ^† On adding ligands and complexes 1–4 to albumins, the absorbance intensity of serum albumins was decreased with a red shift of 2 nm. The observed changes indicated a static quenching mechanism of serum albumins by the ligands and complexes (1–4). To obtain a quantitative insight into the quenching progression, the Stern–Volmer quenching constant (KSV) and the quenching constant (Kq) were calculated from the Stern–Volmer equation using the Io/ICorrversus [Q] plot (Table 4).[53] The observed linearity in the plots (Fig. 13) indicated the ability of the compounds to quench the emission intensity of serum albumins and the order of quenching constant of the compounds is complex 3 > complex 2 > complex 1 > complex 4 > H2L^3 > H2L^2 > H2L^1 > H2L^4.
(§2) Furthermore, the equilibrium binding constant and number of binding sites were evaluated by using the Scatchard equation. The Kbin values were derived from the graph between log[(Fo − F)/F] and log[Q] From the results, we confirmed that the Ru(II) complexes having a large hydrophobic area can interact more efficiently than the ligands with serum albumins via a static pathway. The higher binding affinity of the complexes over the ligands may be due to the efficient binding of protein moiety with the complexed metal ions. Here, the binding affinities of the complexes with serum albumins followed the same order as those with DNA binding studies, complex 3 > complex 2 > complex 1 > complex 4 > H2L^3 > H2L^2 > H2L^1 > H2L^4. Variation in the binding affinity of the compounds with serum albumins depends on the electron-donating ability of the ligand, i.e. the substitution on the N-terminal nitrogen atom. The binding capability of the compounds to serum albumins increased with the increase in electron-donating ability of the substituent on the terminal nitrogen of the coordinated thiosemicarbazone ligand. The obtained quenching constant and binding constant values of these new cyclometallated ruthenium(II) complexes agree well with those reported for other ruthenium(II) complexes.[31,44,54–56] […]
(§3) Serum albumin binding study
(§4) Bovine Serum Albumin (BSA) and human serum albumin were purchased from Hi Media, The protein binding study was performed by tryptophan fluorescence quenching experiments using bovine serum albumin (BSA, 10 µM) or human serum albumin (HSA, 10 µM) as the substrate in phosphate buffer (pH= 7.2). Quenching of the emission intensity of tryptophan residues of BSA at 346 nm (excitation wavelength at 280 nm)/ HSA at 345 nm (excitation wavelength at 290 nm) was monitored using ligands and complexes as quenchers with increasing concentration (10-100µM). Synchronous fluorescence spectra of BSA or HSA with various concentrations of the complexes were obtained from 300 to 400 nm when ∆λ = 60 nm and from 290 to 500 nm when ∆λ = 15 nm. For synchronous fluorescence spectra, the same concentrations of serum albumins and the compounds were also used and the spectra were measured at two different Δλ values (difference between the excitation and emission wavelengths of BSA), such as 15 and 60 nm. Fluorescence and synchronous measurements were performed using a 1 cm quartz cell on a JASCO FP 6600 spectrofluorimeter.
(§5) The quenching data can be analyzed according to the Stern-Volmer equation, […]
(§6) Io/Icorr =K SV[Q]+1 Eq (S2) where Iₒ is the emission intensity in the absence of compound, Icorr is the corrected emission intensity in the presence of compound, KSV is the quenching constant and [Q] is the concentration of the compound.
(§7) In order to correct the inner filter effect, the following equation used Icorr = Iobs*10 (Aexc+Aem)/2 where Icorr is the corrected fluorescence value, Iobs the measured fluorescence value, Aexc is […]

In the next assay the target is T2, HSA (Homo sapiens, UniProt P02768).
T2 construct: purchased HiMedia (Mumbai, India)
Put plainly: HSA tryptophan fluorescence quenching. The assay is classed as binding. The conditions noted are these: for Quenching constant kq / Stern–Volmer KSV / number of binding sites n / Binding constant Kbin: HSA; for Binding constant Kbin: Scatchard equation; for decrease of HSA fluorescence intensity: compounds 10–100 μM, HSA 10 μM.
Text: as §1, §2, §3, §4, §5, §6, §7

The test system of a further assay is S. pneumonie. Put plainly: In vitro antibacterial assay (zone of inhibition, MIC). The class given is cell-based, Streptococcus pneumonie. The settings on record: S. pneumonie. Here is the method:
(§8) The free ligands and their cyclometallated ruthenium(II) carbonyl complexes were screened for their in vitro antimicrobial activity against certain pathogenic bacterial and fungal species at three different concentrations using disc diffusion method.
(§9) Antimicrobial activities of [RuHClCO(PPh3)3], ligands H2L^1–4 and new organometallic Ru(II) complexes (1–4) were evaluated by agar well diffusion method[76] as reported, by taking Staphylococcus aureus, Streptococcus pneumonie, Pseudomonas aeruginosa, Salmonella paratyphi and fungus such as Candida albicans, Trichophyton rubrum, Aspergillus niger, Aspergillus fumigatus and Candida tropicalis. The above said all test organisms were obtained from the MTCC, Chandigarh, India and Microbiological laboratory, Coimbatore, Tamil Nadu, India. The antimicrobial activity of the test compounds was checked with various concentrations (25 μg ml^−1, 50 μg ml^−1 and 100 μg ml^−1) against all the test pathogens. Gentamicin and ketoconazole were used as positive controls to study the antibacterial and antifungal activities respectively. Each experiment was performed in triplicate and the results are represented as average zone of inhibition and minimum inhibitory concentration of all the test pathogens.

The next assay concerns P. aeruginosa. The description is as above. The assay is classed as cell-based, Pseudomonas aeruginosa. The settings on record: P. aeruginosa. The procedure:
as §8, §9

The subject of the next assay is C. albicans. Put plainly: In vitro antifungal assay (zone of inhibition, MIC). The class given is cell-based, Candida albicans. The settings on record: C. albicans. Here is the method: as §8, §9
Assay [1] deals with human breast cancer cell line MCF-7. Put plainly: MTT cytotoxicity assay. The conditions noted are these: MTT, 48 h; read-out: IC50 values MCF-7. The class given is cell-based. The source says: (§10) The DNA/protein binding studies, antioxidant and antimicrobial studies had shown that the ligands and ruthenium(II) complexes studied here have therapeutic potentials and were subjected to study their anticancer activity. A number of coumarin derivatives have shown considerable anticancer activity against a number of cell lines. All the 3-acetyl-7-methoxy-coumarin-4(N)-substituted thiosemicarbazone ligands, metal precursor [RuHClCO(PPh3)3] and their new cyclometallated Ru(II) complexes were assessed for their cytotoxicity with two human derived cell lines namely human lung carcinoma (A549) and human breast cancer cells (MCF-7) by using MTT assay. For comparison purpose, cisplatin was used as a positive control under identical conditions.
(§11) Cytotoxic activity of the compounds was tested with human lung cancer cell lines A549, human breast cancer cell lines MCF-7 and human normal keratinocyte cells (HaCaT) by using MTT assay, which was done according to the earlier literature methods[77] and IC50 values obtained from nonlinear regression using GraphPad Prism 5.[78] The LDH release[79] and NO release[80] assays of the compounds was evaluated by the earlier reported methods.
In general terms: Formazan colour is commonly taken as a measure of viable cells.

The subject of assay [2] is human lung carcinoma cancer cell line A549. Put plainly: MTT cytotoxicity assay. The settings on record: MTT, 48 h; read-out: IC50 values A549. The class given is cell-based.
Text: as §10, §11

Broadly, the IC50 is the concentration at which inhibition is half-maximal.

The structures appear in SMILES notation.

T1 sequence (P02769 25-607): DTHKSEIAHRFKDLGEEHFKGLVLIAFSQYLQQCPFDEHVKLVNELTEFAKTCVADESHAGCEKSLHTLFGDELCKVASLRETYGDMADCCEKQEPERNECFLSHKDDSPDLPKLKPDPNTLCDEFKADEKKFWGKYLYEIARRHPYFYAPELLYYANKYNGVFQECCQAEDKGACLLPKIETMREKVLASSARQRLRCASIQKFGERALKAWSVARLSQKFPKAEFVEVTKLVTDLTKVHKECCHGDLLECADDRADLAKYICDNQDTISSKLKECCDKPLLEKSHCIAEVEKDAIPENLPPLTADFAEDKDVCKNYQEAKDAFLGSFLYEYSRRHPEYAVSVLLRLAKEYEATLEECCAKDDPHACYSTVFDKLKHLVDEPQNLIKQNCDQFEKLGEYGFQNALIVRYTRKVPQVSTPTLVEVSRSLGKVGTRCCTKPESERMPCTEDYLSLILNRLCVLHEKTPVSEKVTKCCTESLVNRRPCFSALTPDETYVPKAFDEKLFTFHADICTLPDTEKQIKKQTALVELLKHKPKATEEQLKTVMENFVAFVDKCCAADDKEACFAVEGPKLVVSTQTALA
T2 sequence (P02768 25-609): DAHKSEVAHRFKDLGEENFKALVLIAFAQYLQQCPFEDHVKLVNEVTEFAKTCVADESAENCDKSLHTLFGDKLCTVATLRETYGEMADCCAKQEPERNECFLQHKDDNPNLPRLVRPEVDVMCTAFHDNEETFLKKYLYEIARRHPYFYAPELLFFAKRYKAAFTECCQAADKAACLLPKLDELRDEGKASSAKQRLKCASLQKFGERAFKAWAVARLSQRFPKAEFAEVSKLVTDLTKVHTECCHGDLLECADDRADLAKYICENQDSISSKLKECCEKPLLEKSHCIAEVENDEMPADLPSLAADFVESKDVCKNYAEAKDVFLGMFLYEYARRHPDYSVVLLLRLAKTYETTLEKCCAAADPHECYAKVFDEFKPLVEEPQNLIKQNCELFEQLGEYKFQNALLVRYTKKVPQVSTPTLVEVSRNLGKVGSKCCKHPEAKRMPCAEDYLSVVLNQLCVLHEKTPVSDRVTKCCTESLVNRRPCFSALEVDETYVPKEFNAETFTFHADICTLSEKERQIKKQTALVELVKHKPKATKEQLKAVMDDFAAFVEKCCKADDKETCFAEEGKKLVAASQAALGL

Regarding `COc1ccc2[c]3c(c(=O)oc2c1)C(C)=[N+]1N=C(N)[S][Ru-4]31([C]#[O+])([P+](c1ccccc1)(c1ccccc1)c1ccccc1)[P+](c1ccccc1)(c1ccccc1)c1ccccc1` [Complex 1, [Ru(7MAC-tsc)(CO)(PPh3)2]], the Quenching constant kq is given as 1.674 ± 0.040 × 10^12 M^−1 s^−1 at BSA and 0.741 ± 0.010 × 10^12 M^−1 s^−1 at HSA. For the same molecule, the “Stern–Volmer KSV” value is listed as 1.674 ± 0.040 × 10^4 M^−1 at BSA and 0.741 ± 0.010 × 10^4 M^−1 on HSA. The “number of binding sites n” value at BSA was found to be 1.0408 ± 0.030; on HSA, 1.1329 ± 0.018. In addition, the figures for the “Binding constant Kbin” value at BSA and at HSA were 2.251 ± 0.029 × 10^4 M^−1 and 2.273 ± 0.017 × 10^4 M^−1, respectively. Further, the “quenching of BSA fluorescence intensity at 346 nm” value (“quenching … at 346 nm” for short) on BSA was 62.61%. In addition, the “decrease of HSA fluorescence intensity” value on HSA was 41.01%. Besides, the “Minimum inhibitory concentration (MIC); head: IC50 VALUES” (from here on “Minimum inhibitory concentration (MIC)”) stood at 15860 ± 70 nM in the assay on S. pneumonie, 16370 ± 190 nM in the assay with P. aeruginosa and 15190 ± 150 nM in the assay on C. albicans. Further, the Zone of inhibition in the assay on S. pneumonie (50 µg/ml) amounted to 12.41±0.36 mm; in the assay on S. pneumonie (100 µg/ml), 18.51±0.94 mm; in the assay on P. aeruginosa (50 µg/ml), 13.23±0.32 mm; in the assay on P. aeruginosa (100 µg/ml), 16.66±0.44 mm; with C. albicans (50 µg/ml), 12.22±0.41 mm; in the assay on C. albicans (100 µg/ml), 18.91±0.41 mm. Further, the results for the IC50 in assay [1] and in assay [2] were 2860 ± 170 nM and 2960 ± 70 nM, respectively.

Turning to `CNC1=N[N+]2=C(C)c3[c](c4ccc(OC)cc4oc3=O)[Ru-4]2([C]#[O+])([P+](c2ccccc2)(c2ccccc2)c2ccccc2)([P+](c2ccccc2)(c2ccccc2)c2ccccc2)[S]1` [Complex 2, [Ru(7MAC-mtsc)(CO)(PPh3)2]], the Quenching constant kq at BSA is given as 2.382 ± 0.011 × 10^12 M^−1 s^−1; at HSA, 1.088 ± 0.030 × 10^12 M^−1 s^−1. Moreover, the “Stern–Volmer KSV” value is recorded as 2.382 ± 0.011 × 10^4 M^−1 on BSA and 1.088 ± 0.030 × 10^4 M^−1 at HSA. The results for the “number of binding sites n” value on BSA and at HSA were 1.0478 ± 0.031 and 1.1859 ± 0.004, respectively. Also, the “Binding constant Kbin” value at BSA is reported as 3.323 ± 0.027 × 10^4 M^−1; at HSA it was 6.341 ± 0.039 × 10^4 M^−1. Also, at BSA, the “quenching … at 346 nm” value is listed as 71.15%. Moreover, the “decrease of HSA fluorescence intensity” value at HSA turned out to be 50.56%. The entries for the “Minimum inhibitory concentration (MIC)” value in the assay with S. pneumonie, in the assay with P. aeruginosa and in the assay with C. albicans were 16430 ± 90 nM, 14810 ± 190 nM and 13590 ± 150 nM, respectively. Besides, the Zone of inhibition with S. pneumonie (50 µg/ml) is 13.21±0.13 mm; with S. pneumonie (100 µg/ml) it was 17.14±0.12 mm; in the assay with P. aeruginosa (50 µg/ml), 12.12±0.13 mm; in the assay with P. aeruginosa (100 µg/ml), 17.95±0.21 mm; in the assay on C. albicans (50 µg/ml), 12.45±0.31 mm; in the assay on C. albicans (100 µg/ml), 16.28±0.10 mm. Moreover, the IC50 was 2620 ± 70 nM in assay [1] and 2930 ± 70 nM in assay [2].

As for `CCNC1=N[N+]2=C(C)c3[c](c4ccc(OC)cc4oc3=O)[Ru-4]2([C]#[O+])([P+](c2ccccc2)(c2ccccc2)c2ccccc2)([P+](c2ccccc2)(c2ccccc2)c2ccccc2)[S]1` [Complex 3, [Ru(7MAC-etsc)(CO)(PPh3)2]], the results for the Quenching constant kq on BSA and at HSA were 1.756 ± 0.080 × 10^12 M^−1 s^−1 and 1.189 ± 0.030 × 10^12 M^−1 s^−1, respectively. Moreover, the “Stern–Volmer KSV” value is recorded as 1.756 ± 0.080 × 10^4 M^−1 on BSA and 1.189 ± 0.030 × 10^4 M^−1 at HSA. Also, the results for the “number of binding sites n” value on BSA and on HSA were 1.266 ± 0.0290 and 1.2027 ± 0.030, respectively. The “Binding constant Kbin” value is on record as 17.49 ± 0.030 × 10^4 M^−1 on BSA and 7.194 ± 0.041 × 10^4 M^−1 at HSA. Also, the “quenching … at 346 nm” value at BSA stood at 63.19%. Moreover, the “decrease of HSA fluorescence intensity” value on HSA was 53.45%. Besides, the figures for the “Minimum inhibitory concentration (MIC)” value in the assay on S. pneumonie, with P. aeruginosa and in the assay on C. albicans were 14850 ± 90 nM, 14460 ± 180 nM and 13240 ± 160 nM, respectively. The Zone of inhibition is 11.11±0.22 mm with S. pneumonie (50 µg/ml); 17.46±0.41 mm in the assay with S. pneumonie (100 µg/ml); 13.23±0.52 mm with P. aeruginosa (50 µg/ml); 17.34±0.45 mm in the assay with P. aeruginosa (100 µg/ml); 12.29±0.15 mm in the assay on C. albicans (50 µg/ml); 17.73±0.21 mm in the assay with C. albicans (100 µg/ml). The results for the IC50 in assay [1] and in assay [2] were 2530 ± 100 nM and 2370 ± 40 nM, respectively.

Source of the values: PMC9077138, “An investigation on 3-acetyl-7-methoxy-coumarin Schiff bases and their Ru(II) metallates with potent antiproliferative activity and enhanced LDH and NO release” (RSC Advances, 2018).
